Our source for the IC50 and inhibition values is patent publication US7135466B2 (Kirin Beer Kabushiki Kaisha, priority 1999, dated 2006).

One may read the IC50 as the concentration needed to halve the response being measured. In general, inhibition refers to the percentage by which the read-out fell short of the control.

One experiment concerns the target T1, c-kit (Homo sapiens, UniProt P10721).
T1 construct: MO7e (human megakaryocytic leukemia cell line) which had been arrested for 20 hr; endogenous in cells; host or cells: MO7e human megakaryocytic leukemia cell line
In words: Inhibitory activity against c-kit autophosphorylation (MO7e cells, h-SCF). The note with it: for IC50: MO7e cells, 50 ng/ml h-SCF, read-out: c-kit IC50; for inhibition at 1 µM: Mo7e, figure within parentheses in −( ) or >1000( ), at 1000 nM. It is filed as cell-based. In outline: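 Growth-arrested (20 hr) MO7e; cpd in DMSO, 1 hr; h-SCF 50 ng/ml, 5 min; lyse. ELISA: anti-pTyr (PY-20) capture, anti-c-kit 1° Ab, HRP anti-rabbit 2° Ab, A450.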

The target in another experiment is T2, PDGF-Ra (Homo sapiens, UniProt P16234).
T2 construct: host or cells: G-292 human osteosarcoma cells
T2 sequence (P16234 24-1089): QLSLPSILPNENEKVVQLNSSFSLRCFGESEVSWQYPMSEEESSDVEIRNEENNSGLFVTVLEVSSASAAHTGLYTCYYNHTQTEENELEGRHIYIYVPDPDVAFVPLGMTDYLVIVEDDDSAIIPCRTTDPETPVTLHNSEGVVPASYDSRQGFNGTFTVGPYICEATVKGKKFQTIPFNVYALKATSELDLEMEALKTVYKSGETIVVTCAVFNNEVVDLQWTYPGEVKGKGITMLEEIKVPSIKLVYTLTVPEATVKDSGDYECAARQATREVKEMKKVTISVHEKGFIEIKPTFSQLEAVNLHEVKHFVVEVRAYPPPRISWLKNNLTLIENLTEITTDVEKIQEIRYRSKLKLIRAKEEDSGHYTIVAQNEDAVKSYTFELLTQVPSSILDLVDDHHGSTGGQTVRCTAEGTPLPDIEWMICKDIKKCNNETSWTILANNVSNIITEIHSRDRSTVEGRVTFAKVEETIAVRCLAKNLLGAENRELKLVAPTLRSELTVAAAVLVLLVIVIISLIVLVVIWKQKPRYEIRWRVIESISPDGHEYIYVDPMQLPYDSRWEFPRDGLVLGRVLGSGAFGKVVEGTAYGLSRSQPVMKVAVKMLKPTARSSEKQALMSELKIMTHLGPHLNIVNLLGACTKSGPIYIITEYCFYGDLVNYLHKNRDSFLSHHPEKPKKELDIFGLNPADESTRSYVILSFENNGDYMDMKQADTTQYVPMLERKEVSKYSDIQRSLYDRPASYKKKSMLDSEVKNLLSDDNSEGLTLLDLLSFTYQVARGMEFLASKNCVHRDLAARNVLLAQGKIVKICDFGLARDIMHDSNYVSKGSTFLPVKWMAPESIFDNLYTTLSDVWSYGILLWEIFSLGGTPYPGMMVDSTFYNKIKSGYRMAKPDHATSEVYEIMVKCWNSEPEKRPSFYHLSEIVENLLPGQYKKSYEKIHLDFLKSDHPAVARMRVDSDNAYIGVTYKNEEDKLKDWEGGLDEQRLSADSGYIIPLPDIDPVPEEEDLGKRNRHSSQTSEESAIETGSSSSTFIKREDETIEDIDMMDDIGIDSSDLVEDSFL
Briefly: Inhibitory activity against PDGF-Ra phosphorylation by PDGF-AA stimulation using G292. The note with it: for IC50: > means inhibition at indicated concentration not more than 50%, < and << not less than 50%, read-out: PDGF (E) IC50; for inhibition at 0.1 µM: G292, figure within parentheses in >100( ), at 100 nM, read-out: PDGF (E) inhibition (%) at 100 nM. It is filed as cell-based. The method, boiled down: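 Human osteosarcoma G-292, 0.1% FBS o/n; cpd (DMSO) 1 h 37 °C; PDGF-AA 50 ng/ml 5 min; lyse 20 min RT; PY-20 capture 4 °C o/n; anti-PDGF-Ra + HRP-GAR; OD450.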

T1 sequence (P10721 26-976): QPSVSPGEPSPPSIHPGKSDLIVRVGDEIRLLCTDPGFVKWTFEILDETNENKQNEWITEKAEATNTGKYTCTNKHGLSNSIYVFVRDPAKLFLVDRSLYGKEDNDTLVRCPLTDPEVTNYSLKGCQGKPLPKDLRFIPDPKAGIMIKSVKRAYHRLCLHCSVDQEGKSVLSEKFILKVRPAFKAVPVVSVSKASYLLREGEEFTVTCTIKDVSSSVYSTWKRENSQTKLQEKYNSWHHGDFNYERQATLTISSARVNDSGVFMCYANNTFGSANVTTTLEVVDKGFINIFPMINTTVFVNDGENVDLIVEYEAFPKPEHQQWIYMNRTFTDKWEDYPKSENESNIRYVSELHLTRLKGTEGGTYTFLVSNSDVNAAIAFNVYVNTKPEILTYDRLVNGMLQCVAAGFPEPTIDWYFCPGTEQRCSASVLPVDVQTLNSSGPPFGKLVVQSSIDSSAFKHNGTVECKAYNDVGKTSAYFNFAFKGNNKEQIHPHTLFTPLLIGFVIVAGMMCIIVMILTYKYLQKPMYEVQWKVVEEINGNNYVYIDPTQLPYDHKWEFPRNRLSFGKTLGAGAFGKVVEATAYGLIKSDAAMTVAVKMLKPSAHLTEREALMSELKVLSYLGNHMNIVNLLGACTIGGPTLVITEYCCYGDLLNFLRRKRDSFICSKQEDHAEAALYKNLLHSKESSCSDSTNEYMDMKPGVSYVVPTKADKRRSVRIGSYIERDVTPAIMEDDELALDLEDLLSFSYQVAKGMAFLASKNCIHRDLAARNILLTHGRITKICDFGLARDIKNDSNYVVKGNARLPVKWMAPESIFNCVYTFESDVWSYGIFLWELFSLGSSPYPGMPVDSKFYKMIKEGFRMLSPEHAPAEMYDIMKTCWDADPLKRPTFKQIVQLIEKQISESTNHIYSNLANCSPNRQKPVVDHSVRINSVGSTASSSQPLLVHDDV

As to `CCN(CCNC(=O)Nc1ccc(Oc2ncnc3cc(OC)c(OC)cc23)cc1)c1cccc(C)c1` [Example 664, N-{4-[(6,7-Dimethoxy-4-quinazolinyl)oxy]phenyl}-N′-[2-(ethyl-3-methylanilino)ethyl]urea], the IC50 at c-kit is 0.097 µM; on PDGF-Ra, less than 0.01 µM.
Consider `CCN(CCNC(=O)Nc1ccc(Oc2ncnc3cc(OC)c(OC)cc23)cc1Cl)c1cccc(C)c1` [Example 665, N-{2-Chloro-4-[(6,7-dimethoxy-4-quinazolinyl)oxy]phenyl}-N′-[2-(ethyl-3-methylanilino)ethyl]urea], for which the half-maximal inhibitory concentration (IC50) at c-kit is 0.122 µM; on PDGF-Ra, 0.011 µM.
In the case of `CCN(CCNC(=O)Nc1ccc(Oc2ccnc3cc(OC)c(OC)cc23)cc1[N+](=O)[O-])c1cccc(C)c1` [Example 666, N-{4-[(6,7-Dimethoxy-4-quinolyl)oxy]-2-nitrophenyl}-N′-[2-(ethyl-3-methylanilino)ethyl]urea], the half-inhibitory concentration (IC50) came to 0.134 µM at c-kit and 0.01 µM on PDGF-Ra.
As to `CCN(CCNC(=O)Nc1ccc(Oc2ncnc3cc(OC)c(OC)cc23)cc1[N+](=O)[O-])c1cccc(C)c1` [Example 667, N-{4-[(6,7-Dimethoxy-4-quinazolinyl)oxy]-2-nitrophenyl}-N′-[2-(ethyl-3-methylanilino)ethyl]urea], the IC50 was 0.1 µM on c-kit and less than 0.01 µM at PDGF-Ra.
As for `CCN(CCNC(=O)Nc1ccc(Oc2ncnc3cc(OC)c(OC)cc23)cc1OC)c1cccc(C)c1` [Example 668, N-{4-[(6,7-Dimethoxy-4-quinazolinyl)oxy]-2-methoxyphenyl}-N′-[2-(ethyl-3-methylanilino)ethyl]urea], the IC50 on c-kit was 0.144 µM; on PDGF-Ra, less than 0.01 µM.
For the compound `CCN(CCNC(=O)Nc1ccc(Oc2ccnc3cc(OC)c(OC)cc23)cc1Cl)c1cccc(C)c1` [Example 669, N-{2-Chloro-4-[(6,7-dimethoxy-4-quinolyl)oxy]phenyl}-N′-[2-(ethyl-3-methylanilino)ethyl]urea], the 50% inhibitory concentration (IC50) at c-kit worked out at 0.134 µM; at PDGF-Ra, 0.023 µM.
Taken in the same sequence, the figures for `CCN(CCNC(=O)Nc1ccc(Oc2ccnc3cc(OC)c(OC)cc23)cc1OC)c1cccc(C)c1` [Example 670, N-{4-[(6,7-Dimethoxy-4-quinolyl)oxy]-2-methoxyphenyl}-N′-[2-(ethyl-3-methylanilino)ethyl]urea] were 0.082 µM and 0.015 µM.
`COc1cc2nccc(Oc3cc(C)c(NC(=O)NCCN(C(C)C)C(C)C)cc3C)c2cc1OC` [Example 671, N-[2-(Diisopropylamino)ethyl]-N′-{4-[(6,7-dimethoxy-4-quinolyl)oxy]-2,5-dimethylphenyl}urea]: at c-kit, the inhibition at 1 µM was 22%. For the same compound, the IC50 on PDGF-Ra was 0.064 µM.
The like results for `COc1cc(Oc2ccnc3cc(OC)c(OC)cc23)ccc1NC(=O)NCCN(C(C)C)C(C)C` [Example 672, N-[2-(Diisopropylamino)ethyl]-N′-{4-[(6,7-dimethoxy-4-quinolyl)oxy]-2-methoxyphenyl}urea] were, in that order, 9% and 0.053 µM.
In the case of `COc1cc2nccc(Oc3ccc(NC(=O)NCCN4CCCCC4)cc3)c2cc1OC` [Example 673, N-{4-[(6,7-Dimethoxy-4-quinolyl)oxy]phenyl}-N′-(2-piperidinoethyl)urea], the 50% inhibitory concentration (IC50) on c-kit stood at 0.426 µM; on PDGF-Ra it was 0.015 µM.
`COc1cc2nccc(Oc3cc(C)c(NC(=O)NCCN4CCCCC4)cc3C)c2cc1OC` [Example 674, N-{4-[(6,7-Dimethoxy-4-quinolyl)oxy]-2,5-dimethylphenyl}-N′-(2-piperidinoethyl)urea]: the figures for the half-maximal inhibitory concentration (IC50) on c-kit and at PDGF-Ra were 0.854 µM and more than 0.1 µM, respectively. In addition, the inhibition at 0.1 µM on PDGF-Ra was determined as 43%.
Consider `COc1cc2nccc(Oc3ccc(NC(=O)NCCN4CCCCC4)c(C)c3C)c2cc1OC` [Example 675, N-{4-[(6,7-Dimethoxy-4-quinolyl)oxy]-2,3-dimethylphenyl}-N′-(2-piperidinoethyl)urea], for which the 50% inhibitory concentration (IC50) at c-kit amounted to 0.442 µM; on PDGF-Ra it was 0.046 µM.
On to `COc1cc2ncnc(Oc3ccc(NC(=O)NCCN4CCCCC4)cc3)c2cc1OC` [Example 676, N-{4-[(6,7-Dimethoxy-4-quinazolinyl)oxy]phenyl}-N′-(2-piperidinoethyl)urea], for which the IC50 at c-kit is 0.632 µM; at PDGF-Ra it was 0.026 µM.
Regarding `COc1cc2ncnc(Oc3ccc(NC(=O)NCCN4CCCCC4)c(Cl)c3)c2cc1OC` [Example 677, N-{2-Chloro-4-[(6,7-dimethoxy-4-quinazolinyl)oxy]phenyl}-N′-(2-piperidinoethyl)urea], the half-inhibitory concentration (IC50) on c-kit worked out at 0.73 µM; at PDGF-Ra it was 0.047 µM.
`COc1cc2nccc(Oc3ccc(NC(=O)NCCN4CCCCC4)c([N+](=O)[O-])c3)c2cc1OC` [Example 678, N-{4-[(6,7-Dimethoxy-4-quinolyl)oxy]-2-nitrophenyl}-N′-(2-piperidinoethyl)urea]: the IC50 is 0.164 µM on c-kit and less than 0.01 µM on PDGF-Ra.
For `COc1cc(Oc2ncnc3cc(OC)c(OC)cc23)ccc1NC(=O)NCCN1CCCCC1` [Example 680, N-{4-[(6,7-Dimethoxy-4-quinazolinyl)oxy]-2-methoxyphenyl}-N′-(2-piperidinoethyl)urea], the half-maximal inhibitory concentration (IC50) at c-kit was determined as 0.57 µM; at PDGF-Ra, 0.035 µM.
In the case of `CCCCN(CCCC)CCNC(=O)Nc1ccc(Oc2ccnc3cc(OC)c(OC)cc23)cc1` [Example 682, N-[2-(Dibutylamino)ethyl]-N′-{4-[(6,7-dimethoxy-4-quinolyl)oxy]phenyl}urea], the inhibition at 1 µM at c-kit was determined as 32%. Besides, on PDGF-Ra, the IC50 was more than 0.1 µM and the inhibition at 0.1 µM was found to be 30%.
The like results for `CCCCN(CCCC)CCNC(=O)Nc1cc(C)c(Oc2ccnc3cc(OC)c(OC)cc23)cc1C` [Example 683, N-[2-(Dibutylamino)ethyl]-N′-{4-[(6,7-dimethoxy-4-quinolyl)oxy]-2,5-dimethylphenyl}urea] were, in that order, 26%, more than 0.1 µM and 40%.
Regarding `CCCCN(CCCC)CCNC(=O)Nc1ccc(Oc2ccnc3cc(OC)c(OC)cc23)c(C)c1C` [Example 684, N-[2-(Dibutylamino)ethyl]-N′-{4-[(6,7-dimethoxy-4-quinolyl)oxy]-2,3-dimethylphenyl}urea], the values for the IC50 on c-kit and on PDGF-Ra were 0.549 µM and 0.052 µM, respectively.
With `CCCCN(CCCC)CCNC(=O)Nc1ccc(Oc2ncnc3cc(OC)c(OC)cc23)cc1` [Example 685, N-[2-(Dibutylamino)ethyl]-N′-{4-[(6,7-dimethoxy-4-quinazolinyl)oxy]phenyl}urea], the inhibition at 1 µM on c-kit came to 41%. Besides, at PDGF-Ra, the IC50 turned out to be 0.022 µM.
In the case of `CCCCN(CCCC)CCNC(=O)Nc1ccc(Oc2ncnc3cc(OC)c(OC)cc23)cc1Cl` [Example 686, N-{2-Chloro-4-[(6,7-dimethoxy-4-quinazolinyl)oxy]phenyl}-N′-[2-(dibutylamino)ethyl]urea], the inhibition at 1 µM at c-kit was 19%. In addition, the half-inhibitory concentration (IC50) at PDGF-Ra came out at 0.038 µM.
In the case of `CCCCN(CCCC)CCNC(=O)Nc1ccc(Oc2ncnc3cc(OC)c(OC)cc23)cc1OC` [Example 688, N-[2-(Dibutylamino)ethyl]-N′-{4-[(6,7-dimethoxy-4-quinazolinyl)oxy]-2-methoxyphenyl}urea], the inhibition at 1 µM at c-kit turned out to be 19%. The 50% inhibitory concentration (IC50) at PDGF-Ra turned out to be 0.034 µM.
Take `CCCCN(CCCC)CCNC(=O)Nc1ccc(Oc2ccnc3cc(OC)c(OC)cc23)cc1OC` [Example 689, N-[2-(Dibutylamino)ethyl]-N′-{4-[(6,7-dimethoxy-4-quinolyl)oxy]-2-methoxyphenyl}urea]: the IC50 is 0.571 µM on c-kit and more than 0.1 µM at PDGF-Ra. Moreover, the inhibition at 0.1 µM at PDGF-Ra came to 42%.
Take `COc1cc2ncnc(Oc3ccc(NC(=O)N4CCN(Cc5ccccc5)CC4)cc3)c2cc1OC` [Example 690, N1-{4-[(6,7-Dimethoxy-4-quinazolinyl)oxy]phenyl}-4-benzyl-1-piperazinecarboxamide]: the inhibition at 1 µM on c-kit came to 11%. On PDGF-Ra, the IC50 was more than 0.1 µM and the inhibition at 0.1 µM is 10%.
Taken in the same sequence, the figures for `COc1cc2ncnc(Oc3ccc(NC(=O)N4CCN(c5ccccc5)CC4)cc3)c2cc1OC` [Example 691, N1-{4-[(6,7-Dimethoxy-4-quinazolinyl)oxy]phenyl}-4-phenyl-1-piperazinecarboxamide] were 18%, more than 0.1 µM and 10%.
As for `COc1cc2nccc(Oc3ccc(NC(=S)NC(=O)c4ccc(Br)s4)c(C)c3)c2cc1OC` [Example 692, N-[(5-Bromo-2-thienyl)carbonyl]-N′-{4-[(6,7-dimethoxy-4-quinolyl)oxy]-2-methylphenyl}thiourea], at c-kit, the IC50 is more than 1 µM and the inhibition at 1 µM came to 20%. On PDGF-Ra, the IC50 was more than 0.1 µM and the inhibition at 0.1 µM was 35%.
Take `COc1cc2nccc(Oc3ccc(NC(=S)NC(=O)c4ccc(Br)s4)cc3Cl)c2cc1OC` [Example 693, N-[(5-Bromo-2-thienyl)carbonyl]-N′-{3-chloro-4-[(6,7-dimethoxy-4-quinolyl)oxy]phenyl}thiourea]: on c-kit, the IC50 is more than 1 µM and the inhibition at 1 µM was 46%. For the same compound, the IC50 at PDGF-Ra amounted to 0.056 µM.
On to `COc1cc2nccc(Oc3ccc(NC(=S)NC(=O)c4ccc(Cl)s4)c(C)c3)c2cc1OC` [Example 694, N-[(5-Chloro-2-thienyl)carbonyl]-N′-{4[(6,7-dimethoxy-4-quinolyl)oxy]-2-methylphenyl}thiourea], for which, at c-kit, the inhibition at 1 µM was found to be 37%. For the same compound, on PDGF-Ra, the IC50 was more than 0.1 µM and the inhibition at 0.1 µM came to 12%.
